Data reported in patent US11266146B2, “Microbiocidal quinoline (thio)carboxamide derivatives” (SYNGENTA PARTICIPATIONS AG, priority 2017, dated 2022).

What was measured:
[1] = tested on: Botryotinia fuckeliana (Botrytis cinerea); assay: Botryotinia fuckeliana (Botrytis cinerea) / liquid culture (Gray mould); format: cell-based; details: growth inhibition photometrically 3-4 days after application, vs untreated control
[2] = tested on: Glomerella lagenarium (Colletotrichum lagenarium); assay: Glomerella lagenarium (Colletotrichum lagenarium) / liquid culture (Anthracnose); format: cell-based; details: Colletotrichum orbiculare, growth inhibition photometrically 3-4 days after application, vs untreated control
Fusarium culmorum [3] = assay: microbe, parasite or virus in culture; format: cell-based; details: read-out: control of Fusarium culmorum
[4] = tested on: Magnaporthe grisea (Pyricularia oryzae); assay: microbe, parasite or virus in culture; format: cell-based; details: read-out: control of Magnaporthe grisea
Fusarium culmorum [5] = assay: whole plant or invertebrate; format: in vivo; details: in Triticum aestivum, 144 h, read-out: control of Fusarium culmorum
[6] = tested on: Monographella nivalis (Microdochium nivale); assay: Monographella nivalis (Microdochium nivale) / liquid culture (foot rot cereals); format: cell-based; details: growth inhibition photometrically 4-5 days after application, vs untreated control

Compound | inhibition of growth at 20 ppm [1] [%] | inhibition of growth at 20 ppm [2] [%] | inhibition of growth at 20 ppm (Fusarium culmorum [3]) [%] | inhibition of growth at 20 ppm [4] [%] | pest or weed control at 200 ppm (Fusarium culmorum [5]) [%] | inhibition of growth at 20 ppm [6] [%] | melting point [°C]
CC(C)C[C@](C)(CN1CCCC(F)(F)C1)NC(=O)c1cnc2c(F)cccc2c1 (single isomer, unassigned) [F1] | ≥ 80 | ≥ 80 | ≥ 80 | ≥ 80 | – | – | –
CC(C)C[C@@](C)(CN1CCCC(F)(F)C1)NC(=O)c1cnc2c(F)cccc2c1 (single isomer, unassigned) [F2] | ≥ 80 | ≥ 80 | ≥ 80 | ≥ 80 | ≥ 80 | ≥ 80 | –
Cc1cnc(CC(C)(CC(C)(C)C)NC(=O)c2cnc3c(F)cccc3c2)o1 (stereo not drawn) [E1] | ≥ 80 | ≥ 80 | ≥ 80 | – | – | ≥ 80 | –
Cc1noc(CC(C)(CC(C)(C)C)NC(=O)c2cnc3c(F)cccc3c2)n1 (stereo not drawn) [E2] | ≥ 80 | ≥ 80 | ≥ 80 | ≥ 80 | – | – | –
CC(C)CC(C)(CN1CCCC(F)(F)C1)NC(=O)c1cnc2c(F)cccc2c1 (stereo not drawn) [E3] | ≥ 80 | ≥ 80 | ≥ 80 | ≥ 80 | ≥ 80 | – | –
CC(C)CC(C)(CN1CCC(=C(F)F)CC1)NC(=O)c1cnc2c(F)cccc2c1 (stereo not drawn) [E4] | ≥ 80 | ≥ 80 | ≥ 80 | ≥ 80 | – | – | –
CC(C)CC(C)(CN1CCC(F)(F)CC1)NC(=O)c1cnc2c(F)cccc2c1 (stereo not drawn) [E5] | ≥ 80 | ≥ 80 | ≥ 80 | ≥ 80 | – | – | –
CC(C)CC(C)(CN1CCCCO1)NC(=O)c1cnc2c(F)cccc2c1 (stereo not drawn) [E6] | ≥ 80 | ≥ 80 | ≥ 80 | ≥ 80 | ≥ 80 | ≥ 80 | –
CC(C)CC(C)(CN1CCSCC1)NC(=O)c1cnc2c(F)cccc2c1 (stereo not drawn) [E7] | ≥ 80 | – | ≥ 80 | ≥ 80 | – | – | –
Cc1ncc(CC(C)(CC(C)C)NC(=O)c2cnc3c(F)cccc3c2)s1 (stereo not drawn) [E8] | ≥ 80 | ≥ 80 | ≥ 80 | ≥ 80 | – | – | 146 to 150
CC(C)CC(C)(Cc1cnc(Cl)s1)NC(=O)c1cnc2c(F)cccc2c1 (stereo not drawn) [E9] | ≥ 80 | – | ≥ 80 | ≥ 80 | ≥ 80 | – | 171 to 173
CC(C)(C)CC(C)(Cc1ncco1)NC(=O)c1cnc2c(F)cccc2c1 (stereo not drawn) [E11] | ≥ 80 | ≥ 80 | ≥ 80 | – | – | – | –
CC(C)CC(C)(Cc1cccs1)NC(=O)c1cnc2c(F)cccc2c1 (stereo not drawn) [E12] | ≥ 80 | ≥ 80 | ≥ 80 | ≥ 80 | ≥ 80 | – | –
Cc1ccc(CC(C)(CC(C)C)NC(=O)c2cnc3c(F)cccc3c2)s1 (stereo not drawn) [E13] | ≥ 80 | ≥ 80 | ≥ 80 | ≥ 80 | – | – | –
CC(C)CC(C)(Cc1ccc(Cl)s1)NC(=O)c1cnc2c(F)cccc2c1 (stereo not drawn) [E14, N-[1-[(5-chloro-2-thienyl)methyl]-1,3-dimethyl-butyl]-8-fluoro-quinoline-3-carboxamide] | ≥ 80 | ≥ 80 | ≥ 80 | ≥ 80 | ≥ 80 | ≥ 80 | 126 to 128
Cc1cc(C(F)(F)F)n(CC(C)(CC(C)C)NC(=O)c2cnc3c(F)cccc3c2)n1 (stereo not drawn) [E15] | – | ≥ 80 | ≥ 80 | ≥ 80 | ≥ 80 | – | –
Cc1cc(C(F)(F)F)nn1CC(C)(CC(C)C)NC(=O)c1cnc2c(F)cccc2c1 (stereo not drawn) [E16] | – | – | – | ≥ 80 | – | – | 140 to 144
Cc1c2ccccc2nn1CC(C)(CC(C)C)NC(=O)c1cnc2c(F)cccc2c1 (stereo not drawn) [E17] | ≥ 80 | – | ≥ 80 | – | – | ≥ 80 | –
Cc1nn(CC(C)(CC(C)C)NC(=O)c2cnc3c(F)cccc3c2)c2ccccc12 (stereo not drawn) [E18] | ≥ 80 | ≥ 80 | ≥ 80 | – | – | – | –
